Patent US4159373A, “7-Acyl-3-(sulfonic acid and sulfamoyl substituted tetrazolyl thiomethyl) cephalosporins” (SmithKline Corporation, priority 1978, dated 1979)
Values after ≈ are worked out from the molar mass of the structure shown. Where two headings read alike, the source gives them in different places.

How the values were obtained:
[1] = system: E. coli HH 33779; assay: MIC in vitro; format: cell-based; conditions: for MIC: Escherichia coli
Description: (§1) The compounds of Formula I have exceptional antibacterial activity against both Gram-positive and Gram-negative organisms. Minimum inhibitory concentrations (MIC's) ranged from 0.2 to <200 μg./ml. in in vitro testing.

[2] = system: E. coli SK 12140; assay: MIC in vitro; format: cell-based; conditions: Escherichia coli, E. coli SK 12140
Description: as §1

[3] = system: Proteus morgani 179; assay: MIC in vitro; format: cell-based; conditions: for MIC: Table 1, read-out: MIC in vitro
Description: as §1

[4] = system: S. aureus HH 127; assay: MIC in vitro; format: cell-based; conditions: Staphylococcus aureus, S. aureus HH 127
Description: as §1

[5] = system: S. aureus SK 23390; assay: MIC in vitro; format: cell-based; conditions: Staphylococcus aureus, SK23390, Table 1; S. aureus SK 23390; read-out: MIC in vitro
Description: as §1

[6] = system: S. villaluz; assay: MIC in vitro; format: cell-based; conditions: Table 1
Description: as §1

[7] = system: Salmonella ATCC 12176; assay: MIC in vitro; format: cell-based; conditions: for MIC: Salmonella, ATCC12176, Table 1, read-out: MIC in vitro
Description: as §1

[8] = system: Strep. Faecalis HH 34358; assay: MIC in vitro; format: cell-based; conditions: Table 1, Strep. Faecalis HH 34358; for MIC: Enterococcus faecalis, read-out: MIC in vitro
Description: as §1

[9] = system: Kleb. pneumo. SK 1200; assay: MIC in vitro; format: cell-based, Kleb. pneumoniae; conditions: Klebsiella pneumoniae, read-out: MIC in vitro
Description: as §1

[10] = system: Kleb. pneumo. SK 4200; assay: MIC in vitro; format: cell-based, Kleb. pneumoniae; conditions: Table 1, Kleb. pneumo. SK 4200; for MIC: Klebsiella pneumoniae, read-out: MIC in vitro
Description: as §1

[11] = system: Psuedo. sp. HH 63; assay: MIC in vitro; format: cell-based, Pseudo. aeruginosa; conditions: Pseudomonas aeruginosa; Table 1; Psuedo. sp. HH 63; read-out: MIC in vitro
Description: as §1

[12] = system: Entero. aerog. ATCC 13048; assay: MIC in vitro; format: cell-based, Enterobacter aerogenes; conditions: Klebsiella aerogenes
Description: as §1

[13] = system: Serra. marc ATCC 13880; assay: MIC in vitro; format: cell-based, Serratia marcescens; conditions: for MIC: Serratia marcescens; for MIC in vitro: Table 1
Description: as §1

[14] = system: Entero. cloacae HH 31254; assay: MIC in vitro; format: cell-based; conditions: Enterobacter cloacae
[15] = system: E. coli 12140; assay: In vivo mouse protection, E. coli 12140; conditions: Table 2, E. coli 12140, read-out: ED50 in vivo
[16] = system: shigella HH 117; assay: MIC in vitro; format: cell-based; conditions: HH117; Table 1; shigella HH 117; read-out: MIC in vitro
Description: as §1

[17] = system: Kleb. pneumo. 4200; assay: In vivo mouse protection, Kleb. pneumo. 4200; conditions: read-out: ED50 in vivo
[18] = HH127, Table 1, read-out: MIC in vitro
[19] = ATCC13880, read-out: MIC in vitro
[20] = HH31254, read-out: MIC in vitro, Table 1
[21] = Escherichia coli, 12140, sc, s.c.
[22] = HH33779, Table 1, E. coli HH 33779, read-out: MIC in vitro
[23] = SK12140, Table 1, read-out: MIC in vitro
[24] = ATCC13048, Table 1, Entero. aerog. ATCC 13048, read-out: MIC in vitro
[25] = ATCC13880, Table 1, Serra. marc ATCC 13880, read-out: MIC in vitro
[26] = HH31254, Table 1, read-out: MIC in vitro
[27] = Escherichia coli, 12140, po, p.o.
[28] = sc, Table 2, Kleb. pneumo. 4200, s.c.
[29] = po, Table 2, Kleb. pneumo. 4200, p.o.

NCc1ccccc1CC(=O)NC1C(=O)N2C(C(=O)O)=C(CSc3nnnn3CS(=O)(=O)O)CS[C@H]12 (stereo partly shown) [XI, 7-(o-aminomethylphenylacetamido)-3-(1-sulfomethyltetrazol-5-ylthiomethyl)-3-cephem-4-carboxylic acid] was tested, and the MIC ([1]; HH33779, read-out: MIC in vitro) was 0.4 µg/mL (≈ 0.72 µM), the MIC ([2]; SK12140, read-out: MIC in vitro, Table 1) was 0.2 µg/mL (≈ 0.36 µM) and the MIC [3] was 50 µg/mL (≈ 90 µM). The MIC [4, 18] was 1.6 µg/mL (≈ 2.88 µM), the MIC [5] was 1.6 µg/mL (≈ 2.88 µM) and the MIC [6] was 200 µg/mL (≈ 360 µM). It also gave an MIC [7] of no more than 0.1 µg/mL, an MIC [8] of 25 µg/mL (≈ 45 µM) and an MIC ([9]; Table 1, Kleb. pneumo. SK 1200) of no more than 0.1 µg/mL. For the same molecule, the MIC [10] was no more than 0.1 µg/mL, the MIC [11] was greater than 200 µg/mL and the MIC ([12]; ATCC13048, read-out: MIC in vitro) was 0.8 µg/mL (≈ 1.44 µM). It also gave an MIC [13, 19] of 6.3 µg/mL (≈ 11.3 µM), an MIC [14, 20] of 0.8 µg/mL (≈ 1.44 µM) and an ED50 [15, 21] of 21.5 mg/kg.
For O=C(Cc1cccs1)NC1C(=O)N2C(C(=O)O)=C(CSc3nnnn3CS(=O)(=O)O)CS[C@H]12 (stereo partly shown) [V, 7-(2-thienylacetamido)-3-(1-sulfomethyltetrazol-5-ylthiomethyl)-3-cephem-4-carboxylic acid], the MIC [1, 22] was 6.3 µg/mL (≈ 11.8 µM), the MIC [2, 23] was 1.6 µg/mL (≈ 3 µM) and the MIC [3] was greater than 200 µg/mL. The MIC [4, 18] was 0.8 µg/mL (≈ 1.5 µM), the MIC [5] was 0.4 µg/mL (≈ 0.751 µM) and the MIC [7] was 0.8 µg/mL (≈ 1.5 µM). The MIC [8] was 25 µg/mL (≈ 46.9 µM), the MIC in vitro [8] was 50 µg/mL (≈ 93.9 µM) and the MIC [16] was 1.6 µg/mL (≈ 3 µM). The MIC [9] was 0.4 µg/mL (≈ 0.751 µM), the MIC [10] was 1.6 µg/mL (≈ 3 µM) and the MIC in vitro [10] was 0.8 µg/mL (≈ 1.5 µM). It also gave an MIC [11] greater than 200 µg/mL, an MIC [12, 24] of 12.5 µg/mL (≈ 23.5 µM) and an MIC [13, 25] of 100 µg/mL (≈ 188 µM). For the same molecule, the MIC in vitro ([13]; Serra. marc ATCC 13880) was 200 µg/mL (≈ 376 µM), the MIC [14, 26] was 1.6 µg/mL (≈ 3 µM) and the ED50 [15, 27] was greater than 50 mg/kg. For the same molecule, the ED50 [15, 21] was 4 mg/kg and the ED50 [17, 28] was 0.26 mg/kg.
O=C(O)C1=C(CSc2nnnn2CS(=O)(=O)O)CS[C@@H]2C(NC(=O)[C@H](O)c3ccccc3)C(=O)N12 (stereo partly drawn) [I, 7-D-Mandelamido-3-(1-sulfomethyltetrazol-5-ylthiomethyl)-3-cephem-4-carboxylic acid] was tested, and the MIC [1, 22] was 3.1 µg/mL (≈ 5.71 µM), the MIC in vitro ([1]; Table 1, E. coli HH 33779) was 1.6 µg/mL (≈ 2.95 µM) and the MIC [2, 23] was 0.8 µg/mL (≈ 1.47 µM). The MIC in vitro ([3]; Table 1) was 3.1 µg/mL (≈ 5.71 µM), the MIC [3] was 3 µg/mL (≈ 5.53 µM) and the MIC ([4]; HH127, read-out: MIC in vitro, Table 1) was 3.1 µg/mL (≈ 5.71 µM). It also gave an MIC [4, 18] of 6 µg/mL (≈ 11.1 µM), an MIC [7] of 0.8 µg/mL (≈ 1.47 µM) and an MIC in vitro ([7]; Table 1) of 0.4 µg/mL (≈ 0.737 µM). It also gave an MIC [8] of 50 µg/mL (≈ 92.2 µM), an MIC in vitro [8] of 100 µg/mL (≈ 184 µM) and an MIC [16] of 0.4 µg/mL (≈ 0.737 µM). For the same molecule, the MIC [10] was 0.8 µg/mL (≈ 1.47 µM), the MIC [11] was greater than 200 µg/mL and the MIC [13, 25] was 12.5 µg/mL (≈ 23 µM). For the same molecule, the MIC in vitro ([13]; Serra. marc ATCC 13880) was 13 µg/mL (≈ 24 µM), the MIC [14, 26] was 3 µg/mL (≈ 5.53 µM) and the MIC [14, 20] was 0.8 µg/mL (≈ 1.47 µM). For the same molecule, the ED50 [15, 21] was 1.56 mg/kg and the ED50 [17, 28] was 0.28 mg/kg.
Molecule NS(=O)(=O)CCn1nnnc1SCC1=C(C(=O)O)N2C(=O)C(NC(=O)[C@H](O)c3ccccc3)[C@H]2SC1 (stereo partly drawn) [III, 7-D-mandelamido-3-[1-(2-sulfamoylethyl)tetrazol-5-ylthiomethyl]-3-cephem-4-carboxylic acid] has an MIC [1, 22] of 1.6 µg/mL (≈ 2.88 µM), an MIC [2, 23] of 0.8 µg/mL (≈ 1.44 µM) and an MIC [3] of 3.1 µg/mL (≈ 5.58 µM). For the same molecule, the MIC [4, 18] was 1.6 µg/mL (≈ 2.88 µM), the MIC [5] was 0.2 µg/mL (≈ 0.36 µM) and the MIC [7] was 0.4 µg/mL (≈ 0.72 µM). The MIC [8] was 12.5 µg/mL (≈ 22.5 µM), the MIC [16] was 0.2 µg/mL (≈ 0.36 µM) and the MIC ([9]; Table 1, Kleb. pneumo. SK 1200) was 0.8 µg/mL (≈ 1.44 µM). It also gave an MIC [10] of 1.6 µg/mL (≈ 2.88 µM), an MIC [11] greater than 200 µg/mL and an MIC [12, 24] of 3.1 µg/mL (≈ 5.58 µM). It also gave an MIC [13, 19] of 6.3 µg/mL (≈ 11.3 µM), an MIC [14, 20] of 0.8 µg/mL (≈ 1.44 µM) and an ED50 [15, 27] of 25 mg/kg. It also gave an ED50 [15, 21] of 0.7 mg/kg, an ED50 [17, 29] of 21.5 mg/kg and an ED50 [17, 28] of 0.68 mg/kg.
O=C(O)C1=C(CSc2nnnn2CCS(=O)(=O)O)CS[C@@H]2C(NC(=O)[C@H](O)c3ccccc3)C(=O)N12 (stereo partly drawn) [II, 7-D-Mandelamido-3-[1-(2-sulfoethyl)tetrazol-5-ylthiomethyl]-3-cephem-4-carboxylic acid] showed an MIC [1, 22] of 1.6 µg/mL (≈ 2.87 µM), an MIC [2, 23] of 0.8 µg/mL (≈ 1.44 µM) and an MIC [3] of 6.3 µg/mL (≈ 11.3 µM). For the same molecule, the MIC [4, 18] was 1.6 µg/mL (≈ 2.87 µM), the MIC [5] was 0.8 µg/mL (≈ 1.44 µM) and the MIC [7] was 0.8 µg/mL (≈ 1.44 µM). It also gave an MIC [8] of 50 µg/mL (≈ 89.8 µM), an MIC [16] of 0.4 µg/mL (≈ 0.719 µM) and an MIC [9] of 0.4 µg/mL (≈ 0.719 µM). For the same molecule, the MIC [10] was 0.8 µg/mL (≈ 1.44 µM), the MIC [11] was greater than 200 µg/mL and the MIC [12, 24] was 6.3 µg/mL (≈ 11.3 µM). For the same molecule, the MIC [13, 25] was 25 µg/mL (≈ 44.9 µM), the MIC [14, 26] was 3.1 µg/mL (≈ 5.57 µM) and the ED50 [15, 27] was 35 mg/kg. The ED50 [15, 21] was 0.58 mg/kg, the ED50 [17, 29] was 18.6 mg/kg and the ED50 [17, 28] was 0.39 mg/kg.
